In patent publication US20090274687A1, “ATTENUATION OF HYPOXIA INDUCED CARDIOVASCULAR DISORDERS” (University Of Miami, priority 2008, published 2009):
“Also recorded” adds a separate entry of the source.

Legend:
[1] = system: FVB/NJ neonatal mice exposed to normobaric hypoxia (hypoxia-induced pulmonary hypertension); assay: Prevention: neonatal mice exposed to 1 wk hypoxia, daily intraperitoneal treatment postnatal day 1-7; type: in vivo
Experimental: Animal Care and Treatment: Sixty Eight FVB/NJ neonatal mice exposed to normobaric hypoxia (10% O2) or normoxia (20.9% O2) for one week were randomly assigned to receive daily intraperitoneal injections of normal saline (PL; n=19), or AMD3100 (7.5 mg/kg; n=10) or anti-SDF-1 antibody ([…]; n=19) for seven days, from postnatal day 1-7.

CXCR4 receptor = details: cited from earlier work

c1cc(CN2CCCNCCNCCCNCC2)ccc1CN1CCCNCCNCCCNCC1 [AMD3100, 1,1′-[1,4-phenylenebis(methylene)]bis-1,4,8,11-tetraazacyclotetradecane]
vascular remodeling (medial wall thickness), morphometric analysis of pulmonary arterioles ([1]; 1 wk hypoxia, 20-50 μm diameter arterioles, vs Hyp PL, FIG. 5D): marked decrease; also recorded: markedly attenuated | RV c-kit expression ([1]; 1 wk hypoxia, right ventricle, vs Hyp PL, FIG. 4C): significantly decreased | RV Sca-1 expression ([1]; 1 wk hypoxia, right ventricle, vs Hyp PL, FIG. 4D): significantly decreased | RV Isl-1 expression ([1]; 1 wk hypoxia, right ventricle, vs Hyp PL, FIG. 4E): significantly decreased | protein expression of stem cell markers (c-kit, Sca-1) in lungs and right ventricles ([1]; 1 wk hypoxia, to baseline or near baseline values, FIGS. 4A-4E): significantly decreased | lung c-kit expression ([1]; 1 wk hypoxia, vs Hyp PL, to near baseline values, FIG. 4A): significantly decreased | lung Sca-1 expression ([1]; 1 wk hypoxia, vs Hyp PL, to near baseline values, FIG. 4B): significantly decreased | RVSP ([1]; 1 wk hypoxia, vs placebo, FIG. 5A): close to baseline values; also recorded: significantly attenuated | RV Hypertrophy (RV/LV+S) ([1]; 1 wk hypoxia, vs placebo, FIG. 5B): close to baseline values; also recorded: significantly attenuated | number of muscularized pulmonary arterioles (α-smooth muscle actin staining) ([1]; 1 wk hypoxia, vs placebo, FIG. 5C): decreased | percentage of non-muscularized pulmonary arterioles ([1]; 1 wk hypoxia, vs placebo, FIG. 5E): significantly increased | mean linear intercept (MLI), lung alveolarization ([1]; 1 wk hypoxia, vs placebo, FIG. 5F): significantly decreased | number of PCNA+ cells in the pulmonary vasculature (cell proliferation) ([1]; hypoxic mouse pups vs Hyp PL, FIGS. 6A-6B): significantly attenuated | number of TUNEL+ cells in the pulmonary vasculature (apoptosis) ([1]; hypoxic mouse pups vs Hyp PL, FIGS. 6D-6E): significantly attenuated | phosphorylated-Akt expression in lungs ([1]; treated mouse pups vs placebo, FIG. 6C): marked decrease | affinity relative to its affinity in CXCR4 (CXCR4 receptor; after introduction of Glu VII:06 and removal of Lys VII:02): ≤ 10 fold | increase in affinity of AMD3100 (CXCR4 receptor; introduction of a Glu at position VII:06 and removal of a neutralizing Lys residue at position VII:02): 1000 fold
